# Source: US20250195412A1, “PHARMACEUTICAL FORMULATIONS OF R-KETAMINE” (priority 2022, published 2025)
# Several values for one entry are separate records, joined by “and”; a condition that tells them apart may be missing. Equal entries are not always repeated. Entries after “also recorded” stand apart in the source; their conditions may differ.
# Legend:
# [1] = Solubility profile in solvents
# [2] = Cosolvent screening: assay of filtered sample by HPLC; format: physicochemical
# Method: (§1) For cosolvent screening, a set of possible candidates was identified. Specifically, 5% sulfobutyl-ether-β-cyclodextrin (SBE7), polyethylene glycol 400 (PEG 400), glycerol, propylene glycol, and 5% polysorbate 80 were to be screened at pH 5 and 6. Unless otherwise specified, cosolvents were screened at 20% and 50% (m/V). As a control, the solubility of R-ketamine in water was studied at pH 5 and 6.
# (§2) The test solution consisting of water for injection. The respective cosolvent was prepared and the active substance was dissolved to a nominal concentration of 100 mg/ml (equaling 86.96 mg/ml free base). The pH was then adjusted to pH 5 with 1N NaOH and a sample was obtained under filtration (0.22 μm). Thereafter, the pH was further increased to pH 6 and another sample was taken (also filtered). Both samples were analyzed for assay and tonicity by HPLC and freezing point depression.
# (§3) • Batch size: 90 g/pH set at end of compounding (1N NaOH/1N HCl)
# [3] = Cyclodextrin inclusion: API content of filtered solution by HPLC; format: physicochemical; conditions: nominal 100 mg/ml (86.96 mg/ml free base)
# Method: (§4) The effect of hydroxypropyl β-cyclodextrin (HPB) on the solubility of R-ketamine at different pH values was investigated. Varied factors were pH of the solution and the concentration of HPB. Response factors were tonicity, which was determined by freezing point depression, and API content, which was measured by HPLC, of a filtered (0.22 μm) solution.
# (§5) After dissolving the active ingredient (100 mg/ml, 86.96 mg/ml free base), a defined amount of HPB was added. After complete solution of the two components, the target pH was adjusted with sodium hydroxide solution (1 M). The resulting solution was filtered through a syringe filter (0.22 μm) and analyzed by HPLC and freezing point depression. A separate protocol was prepared for each individual experiment.
# [4] = Phosphate buffer: content of filtered sample by HPLC, visual precipitation; format: physicochemical
# Method: (§6) The ingredients for a 20 mM buffer and the appropriate amount of R-ketamine HCl (60 mg/ml, equaling 52.2 mg/ml free base) were weighed together and diluted in water for injection. Subsequently, the pH was adjusted, e.g. to 5.2. After filling up to the target volume, the mixture was stirred for a defined time and a sample was obtained under filtration (0.22 μm). This sample was analyzed for content by HPLC and for tonicity by freezing point depression.
# (§7) Based on the previous results from the citrate buffer series experiment, the experiments with the phosphate buffer could be limited to pH 5.8. The nominal concentrations 60 and 70 mg/ml were investigated.
# (§8) The solution was prepared and tested as described for the citrate buffer.
# [5] = Log P (general properties)
# [6] = pH 5.5
# [7] = pH dependence of solubility / precipitation of the free base in water; format: physicochemical
# Method: From pH 5.5, the free base consequently precipitates, if this is not prevented by the addition of suitable excipients.
# (§9) One finding from the previous Examples was that there is a range between pH 5 and 6 in which 60 mg/ml API can be dissolved. Strong precipitation of the free base only occurs above a pH of 5.9 according to the observation. Based on this observation, it was decided to investigate two compendial buffer systems (citrate and phosphate buffer) for their ability to hold 60 mg/ml of R-ketamine in solution and stabilize the formulation against pH shifts. Another change was that the pH adjustment was done with 0.15 N NaOH instead of 1 N NaOH in the following experiments. This change was underdone because there were concerns that the very alkaline microenvironment around the drops of sodium hydroxide solution would lead to the formation of flakes that were difficult to dissolve.
# The solubility of R-ketamine is strongly pH dependent. In the acidic pH range, the active ingredient is readily soluble, while precipitation occurs at pH values greater than 5.7-5.9. A careful choice of formulation parameters allows the requirements of the application route to be reconciled with the dissolution behavior of the active ingredient. The way in which the pH is adjusted also has a major influence. By using low-concentration alkalis, the formation of highly alkaline microenvironments around the dropping point could be avoided. This prevents the formation of active ingredient flocs that are difficult to dissolve again.
# [8] = Citrate buffer: tonicity by freezing point depression; format: physicochemical
# Method: as §9, §6
# [9] = Initial tests with maleic acid buffering: dissolution behaviour and pH; format: physicochemical
# Method: Due to its ability to act as a buffer in the acidic to neutral range, a 0.02 M aqueous maleic acid solution was proposed as the base formulation. The aim was to investigate the dissolving capacity for R-ketamine in the concentration range of 60, 80 and 100 mg/ml at pH 5.5 and 5.7 (after the feasibility test with a pH of 5.8 had to be considered as failed) and the stability of the formulations in a study for four weeks.
# In an initial feasibility test, the dissolution behaviour of R-ketamine was investigated in the presence of maleic acid. Pure water was used as a comparison. In an aqueous solution of 60 mg/ml R-ketamine without buffering, a pH of 4.65 was obtained. If the same amount of R-ketamine was dissolved in a 0.02 M maleic acid buffer adjusted to pH 5.75, the pH decreased to a value of 5.38.
# [10] = Cyclodextrin inclusion: tonicity by freezing point depression; format: physicochemical
# Method: as §4, §5
# [11] = Citrate buffer: content of filtered sample by HPLC, visual precipitation; format: physicochemical
# Method: as §9, §6
# [12] = Cosolvent screening: tonicity by freezing point depression; format: physicochemical
# Method: as §1, §2, §3
# [13] = Hygroscopicity, DVS experiments; format: physicochemical; conditions: between 50% RH to 90% RH in DVS experiments
# [14] = Orientative stability examination of phosphate-buffered formulation, room temperature storage; format: physicochemical; conditions: 60 mg/mL in phosphate buffer pH 5.8, room temperature, two weeks
# [15] = Phosphate buffer: tonicity by freezing point depression; format: physicochemical
# Method: as §6, §7, §8
# [16] = Cyclodextrin (HPB) 20 %, pH 4.5
# [17] = Cyclodextrin (HPB) 20 %, pH 7.5
# [18] = phosphate buffer pH 5.8, nominal 60 mg/ml (52.2 mg/ml free base)
# [19] = phosphate buffer pH 5.8, nominal 70 mg/ml (60.9 mg/ml free base)
# [20] = 60 mg/ml in 20 mM citrate buffer, pH 5.4
# [21] = 60 mg/ml in 20 mM citrate buffer, pH 5.6
# [22] = 60 mg/ml in 20 mM citrate buffer, pH 5.8
# [23] = 70 mg/ml (60.9 mg/ml free base) in citrate buffer, pH 5.8
structure (smiles),measurement,setting,value
"CN[C@@]1(c2ccccc2Cl)CCCCC1=O [R-ketamine, (2R)-2-(2-chlorophenyl)-2-(methylamino)cyclohexan-1-one]",Solubility Classification (EP),[1]; 1-propanol,Sparingly soluble
same,solubility,"[1]; 1-propanol, organic solvent or mixture",13 to 15 mg/mL
same,Solubility Classification (EP),[1]; 2-propanol,Slightly soluble
same,solubility,"[1]; 2-propanol, organic solvent or mixture",~4 mg/mL
same,Solubility Classification (EP),"[1]; Acetone, acetonitrile, anisole, ethyl acetate, heptane, methyl ethyl ketone, methyl iso-butyl ketone, tetrahydrofuran, methyl tert-butyl ether",Very slightly soluble
same,Solubility Classification (EP),"[1]; DMSO, Ethanol",Sparingly soluble
same,solubility,"[1]; DMSO, ethanol, organic solvent or mixture",20 to 30 mg/mL
same,Solubility Classification (EP),[1]; Methanol,Soluble
same,Solubility Classification (EP),[1]; Water,Freely soluble
same,solubility,"[1]; methanol, organic solvent or mixture",50 to 100 mg/mL
same,solubility,[1]; organic solvent or mixture,< 1 mg/mL
same,solubility,[1]; water,> 140 mg/mL
same,solubility,"[1]; water, pH 4, water",> 140 mg/mL
same,Assay,"[2]; Glycerol 20%, pH 6.0",19.1 mg/mL
same,Assay,"[2]; Glycerol 50%, pH 6.0",20.2 mg/mL
same,Assay,"[2]; PEG 20%, pH 6.0",19.9 mg/mL
same,Assay,"[2]; PEG 50%, pH 6.0",21.6 mg/mL
same,Assay,"[2]; Propylene glycol 20%, pH 6.0",24.5 mg/mL
same,Assay,"[2]; Propylene glycol 50%, pH 6.0",46.5 mg/mL
same,Assay,"[2]; Tween 5%, pH 5.0",89.2 mg/mL
same,Assay,"[2]; Tween 5%, pH 6.0",18.8 mg/mL
same,Assay,"[2]; Water for injection, pH 5.0, nominal 100 mg/ml (86.96 mg/ml free base)",88.6 mg/mL
same,Assay,"[2]; Water for injection, pH 6.0",19.7 mg/mL
same,Assay,"[3]; Cyclodextrin (HPB) 0 %, pH 4.5",88.9 mg/mL
same,Assay,"[3]; Cyclodextrin (HPB) 0 %, pH 7.5",0.9 mg/mL
same,Assay,"[3]; Cyclodextrin (HPB) 10 %, pH 6",26.8 mg/mL and 29.6 mg/mL
same,Assay,[3]; [16],93.9 mg/mL
same,Assay,[3]; [17],11.1 mg/mL
same,Assay,[4]; [18],51.2 mg/ml free base
same,Assay,[4]; [19],59.7 mg/ml free base
same,visible precipitation after pH adjustment and filtration,"[4]; phosphate buffer pH 5.8, nominal 60 and 70 mg/ml",no visible precipitation
same,logP,[5],2.18
same,"decrease of pH over the study, average",[6],0.2 pH units
same,four-week stability assay,[6],satisfactory stability
same,pH from which the free base precipitates,"[7]; in water, without suitable excipients, Henderson-Hasselbalch, FIG. 1",≥ 5.5
same,pH above which precipitation of the free base occurs,[7]; observed in the experiments,> 5.9 and 5.7-5.9
same,API that can be dissolved,[7]; range between pH 5 and 6,60 mg/mL
same,Tonicity,"[8]; 60 mg/ml in 20 mM citrate buffer, pH 5.2",534 mOsmol/kg
same,Tonicity,[8]; [20],540 mOsmol/kg
same,Tonicity,[8]; [21],546 mOsmol/kg
same,Tonicity,[8]; [22],561 mOsmol/kg
same,Tonicity,"[8]; 70 mg/ml in citrate buffer, pH 5.8",556 mOsmol/kg
same,pH after dissolving,[9]; 60 mg/ml in 0.02 M maleic acid buffer adjusted to pH 5.75,5.38
same,pH obtained,[9]; aqueous solution of 60 mg/ml R-ketamine without buffering,4.65
same,precipitation on raising the pH to 5.8,"[9]; maleic acid buffer, pH raised to 5.8 with 0.15 M NaOH",without precipitation
same,Tonicity,"[10]; Cyclodextrin (HPB) 0 %, pH 4.5",644 mOsmol
same,Tonicity,"[10]; Cyclodextrin (HPB) 0 %, pH 7.5",522 mOsmol
same,Tonicity,"[10]; Cyclodextrin (HPB) 10 %, pH 6",680 mOsmol and 683 mOsmol
same,Tonicity,[10]; [16],638 mOsmol
same,Tonicity,[10]; [17],546 mOsmol
same,pKa,pKa (general properties),7.5
same,Assay,"[11]; 60 mg/ml (52.2 mg/ml free base) in 20 mM citrate buffer, pH 5.2",46.2 mg/mL
same,Assay,[11]; [20],46.1 mg/mL
same,Assay,[11]; [21],46.4 mg/mL
same,Assay,[11]; [22],47.2 mg/mL
same,visual precipitation,"[11]; 60 mg/ml in citrate buffer, pH 5.2-5.8",no precipitation could be detected visually
same,content found,"[11]; 60 mg/ml in citrate buffer, range of pH 5.2-5.8",about 46.5 mg/ml
same,Assay,[11]; [23],46.2 mg/mL
same,precipitation after pH adjustment,[11]; [23],precipitation was observed
same,Tonicity,"[12]; Glycerol 20%, pH 6.0",1445 mOsmol
same,Tonicity,"[12]; PEG 20%, pH 6.0",695 mOsmol
same,Tonicity,"[12]; Tween 5%, pH 5.0",686 mOsmol
same,Tonicity,"[12]; Tween 5%, pH 6.0",602 mOsmol
same,Tonicity,"[12]; Water for injection, pH 5.0",651 mOsmol
same,Tonicity,"[12]; Water for injection, pH 6.0",568 mOsmol
same,Hygroscopicity,[13],"Not hygroscopic, no moisture uptake"
same,shelf life / precipitation on storage,[14],fine crystalline precipitate was observed; also recorded: precipitation
same,Tonicity,[15]; [18],476 mOsmol/kg
same,Tonicity,[15]; [19],545 mOsmol/kg
